Data reported in patent US20120252825A1, “BENEFICIAL EFFECTS OF COMBINATION THERAPY ON CHOLESTEROL” (Pfizer Inc., priority 2011, published 2012).
Where two headings read alike, the source gives them in different places.

Tests used:
[1] = relative to Enrollment Visit
Text: Table 2 presents the ACR20 (American College of Rheumatology 20% improvement in response rate) response rates (relative to Enrollment Visit, i.e., pre-TOFACITINIB treatment).

LDL-C = details: for Percent Change from Baseline in LDL, adjusted mean: TOFACITINIB 10 mg BID
HDL = details: FIG. 2
Apolipoprotein A-1 = details: FIG. 3
Apolipoprotein B = details: FIG. 4
triglycerides = details: FIG. 5
total cholesterol = details: FIG. 6
[2] = following introduction of TOFACITINIB treatment
[3] = after Enrollment Visit (introduction of TOFACITINIB treatment)

## C[C@@H]1CCN(C(=O)CC#N)C[C@@H]1N(C)c1ncnc2[nH]ccc12 [TOFACITINIB, 3-{(3R,4R)-4-Methyl-3-[methyl-(7H-pyrrolo-[2,3-d]pyrimidin-4-yl)-amino]-piperidin-1-yl}-3-oxo-propionitrile]
[1]; Baseline (after 6 week treatment of TOFACITINIB 10 mg BID), atorvastatin group before add-on
  ACR20 response rate, % of responders: 76.0%
[1]; Baseline (after 6 week treatment of TOFACITINIB 10 mg BID), atorvastatin group before add-on, N 50
  ACR20 response, number of responders: 38
[1]; Baseline (after 6 week treatment of TOFACITINIB 10 mg BID), placebo group before add-on
  ACR20 response rate, % of responders: 76.6%
[1]; Baseline (after 6 week treatment of TOFACITINIB 10 mg BID), placebo group before add-on, N 47
  ACR20 response, number of responders: 36
[1]; Week 12, after 6 week treatment of atorvastatin or placebo added on to TOFACITINIB 10 mg BID
  ACR20 response rate, % of responders: 65.2%
[1]; Week 12, after 6 week treatment of atorvastatin or placebo added on to TOFACITINIB 10 mg BID, N 46
  ACR20 response, number of responders: 30
LDL-C; Week 10
  Percent Change from Baseline in LDL, adjusted mean: 5.5%
LDL-C; Week 12 (primary endpoint)
  Percent Change from Baseline in LDL, adjusted mean: 5.8%
LDL-C; after 6 weeks treatment with TOFACITINIB, placebo/TOFACITINIB treatment group, before placebo was added
  baseline LDL-C mean: 138.26 mg/dL
LDL-C; after Baseline Visit, FIG. 1
  LDL level, trend: slightly increasing trend
LDL-C; after Enrollment Visit (introduction of TOFACITINIB treatment), FIG. 1
  median LDL-C level, trend: increase
LDL-C; week 12, 6 weeks following randomization
  LDL-C mean: 142.61 mg/dL
HDL; after Baseline Visit
  HDL level, trend: slight upward trend
HDL; following the Enrollment Visit
  HDL level, trend: increase
Apolipoprotein A-1; after Baseline Visit
  Apolipoprotein A-1 level, trend: slightly trend upward
Apolipoprotein A-1; [2]
  Apolipoprotein A-1 level, trend: increases
Apolipoprotein B; after Baseline Visit
  Apolipoprotein B level, trend: slightly increasing trend
Apolipoprotein B; [3]
  median Apolipoprotein B level, trend: increase
triglycerides; after Baseline Visit
  triglycerides level, trend: increases continue
triglycerides; [2]
  triglycerides level, trend: increase
Total cholesterol; after Baseline Visit
  total cholesterol level, trend: slightly increasing trend
Total cholesterol; [3]
  median total cholesterol level, trend: increase
